Consider two compounds from patent US20110033944A1, “METHOD FOR MEASURING HYPOCHLORITE ION” (SEKISUI MEDICAL CO., LTD., priority 2003, published 2011).

Experiment [1] can be described thus: Reactivity of fluorescence probe to hydrogen peroxide. Format: physicochemical. The following applies: 10 μM probe, H2O2 100 μM, pH 7.4, 37° C. The procedure:
(§1) In the following example, a compound wherein R^1 is 2-carboxyphenyl group, and R^2 is 4-aminophenyl group in the general formula (I) (hereinafter referred to as “APF”) and a compound wherein R^3 is 2-carboxyphenyl group, and R^4 is 4-hydroxyphenyl group in the general formula (II) (hereinafter referred to as “HPF”) were used. Each of HPF and APF is dissolved in dimethylformamide (DMF) to obtain a 10 mM solution, and then added with a 100 mM sodium phosphate buffer (pH 7.4) to obtain a final concentration of 10 μM, unless otherwise specifically mentioned.
(§2) Excitation spectra and fluorescence spectra were analyzed with Hitachi F4500. The slit width was 2.5 nm in both of the excitation spectra and fluorescence spectra. The photomultiplier voltage was 950 V. Unless otherwise specifically mentioned, excitation wavelength was 490 nm, fluorescence wavelength was 515 nm, and the measurement was performed at 37° C.
(§3) Reactivities of APF and HPF to various reactive species containing oxygen were studied. […] The measurement was performed with excitation wavelength at 500 nm and with fluorescence wavelength at 520 nm for DCFH.
A 10 μM fluorescence probe solution was put in a fluorescence cell, added with H2O2 (a final concentration of 100 μM), and was reacted for 30 minutes. Fluorescence intensities before the addition of H2O2 and 30 minutes after the addition were measured.

A short description of experiment [2]: Reactivity of fluorescence probe to singlet oxygen (EP-1). In kind it is physicochemical. To be noted: 10 μM probe, EP-1 100 μM, pH 7.4, 37° C. The method, then:
as §1, §2, §3
A 10 μM fluorescence probe solution was put in a fluorescence cell, added with 3-(1,4-dihydro-1,4-epidioxy-1-naphthyl)propionic acid (EP-1; a final concentration of 100 μM), and was reacted for 30 minutes. […]

Experiment [3] deals with neutrophils. Briefly: Fluorescence imaging of PMA-stimulated neutrophils. The following applies: 10 μM probe, PMA 2 ng/mL, excitation 488 nm, emission 505-550 nm. Format: cell-based, porcine. The method, then:
According to the method described in Wakeyama, H., Takeshige, K., Takayanagi, R., and Minakami S. (1982) Biochem. J. 205, 593-601 and Kakinuma, K., Kaneda, M., Chiba, T., and Ohnishi, T. (1986) J. Biol. Chem. 261, 9426-9432, neutrophils were obtained from 1.8 liters of porcine blood. Erythrocytes in the buffy coat collected from the blood were hemolyzed with a large volume of an ice-cooled 0.2% aqueous sodium chloride solution for […] and then the preparation was promptly mixed with an equal volume of a 1.6% aqueous sodium chloride solution to restore the isotonic condition. Neutrophils were separated from platelets and mononuclear cells by the Conrey-Ficoll method. The neutrophils were suspended in Krebs Ringer phosphate buffer (114 mM NaCl, 4.6 mM KCl, 2.4 mM MgSO4, 1.0 mM, CaCl2, 15 mM NaH2PO4/Na2HPO4, pH7.4).
The separated neutrophils were seeded onto a glass-bottomed dish. Then the cells were loaded with HPF or APF (10 μM) after incubation for 30 minutes at room temperature. These neutrophils were stimulated with 4β-phorbol-12-myristate-13-acetate (PMA)(2 ng/mL). Fluorescence imaging was measured twice in each experiment: one is before and the other is 10 minutes after the stimulation with PMA. […]

Experiment [4] in a line: Reactivity of fluorescence probe to nitric oxide (NOC13). In kind it is physicochemical. The following applies: 10 μM probe, NOC13 100 μM, pH 7.4, 37° C. The method, then:
as §1, §2, §3
A 10 μM fluorescence probe solution was put in a fluorescence cell, added with 1-hydroxy-2-oxo-3-(3-aminopropyl)-3-ethyl-1-triazine (NOC13; a final concentration of 100 μM), and was reacted for 30 minutes. […]

A short description of experiment [5]: Reactivity of fluorescence probe to superoxide (KO2). The following applies: 10 μM probe, KO2 100 μM, pH 7.4, 37° C. In kind it is physicochemical. The procedure: as §1, §2, §3
A 10 μM fluorescence probe solution was put in a fluorescence cell, added with KO2 (a final concentration of 100 μM), and was reacted for 30 minutes. Fluorescence intensities before the addition of KO2 and 30 minutes after the addition were measured.

The test system of experiment [6] is Myeloperoxidase (human). Briefly: Myeloperoxidase/H2O2 system, fluorescence measurement of generated hypochlorite ion. In kind it is biochemical. To be noted: 10 μM probe, myeloperoxidase 11.2 nM, 150 mM NaCl, 37° C. The method, then:
as §1, §2
(A) By using a 100 mM sodium phosphate buffer (pH 7.4) containing 150 mM sodium chloride, a 10 μM HPF solution and a 10 μM APF solution were prepared. Myeloperoxidase (human) were added to these solutions to obtain a final concentration of 11.2 nM. Each of the solution was put in each fluorescence cell, and a change in the fluorescence intensity with passage of time was measured. The temperature of the solutions were set at 37° C. […]

A short description of experiment [7]: Reactivity of fluorescence probe to hypochlorite ion (sodium hypochlorite). In kind it is physicochemical. The following applies: 10 μM probe, sodium hypochlorite 1.0 μM, pH 7.4, 37° C. The method, then:
as §1, §2, §3
A 10 μM fluorescence probe solution was put in a fluorescence cell, added with an aqueous sodium hypochlorite solution (a final concentration of 1.0 μM). Fluorescence intensities before and after the addition of an aqueous sodium hypochlorite solution were measured.

Experiment [8] in a line: Reactivity of fluorescence probe to hydroxyl radical (H2O2 / ferrous perchlorate). In kind it is physicochemical. To be noted: 10 μM probe, H2O2 1 mM + ferrous perchlorate 100 μM, pH 7.4, room temperature. The method, then:
as §1, §2, §3
A 10 μM fluorescence probe solution was added with an aqueous hydrogen peroxide solution (a final concentration of 1 mM), and further slowly added with an aqueous ferrous perchlorate (a final concentration of 100 μM). […]

Consider `Nc1ccc(Oc2ccc3c(-c4ccccc4C(=O)O)c4ccc(=O)cc-4oc3c2)cc1` [APF], for which the “Reactivity to hydrogen peroxide (fluorescence intensity before and 30 minutes after addition)” value in experiment [1] is on record as less than 1. Moreover, the “Reactivity to singlet oxygen (fluorescence intensity before and 30 minutes after addition)” value in experiment [2] is on record as 9. The “Fluorescence intensity of probe-loaded neutrophils before and 10 minutes after stimulation with PMA” value in experiment [3] was “a significant increase was observed in fluorescence intensity”. For the same compound, in experiment [4], the “Reactivity to nitric oxide (fluorescence intensity before and 30 minutes after addition)” value was less than 1. In addition, the “Reactivity to superoxide (fluorescence intensity before and 30 minutes after addition)” value in experiment [5] was determined as 6. The “Change in fluorescence intensity with time on addition of hydrogen peroxide (FIG. 1(A))” value in experiment [6] (H2O2 1 μM) was “a significant increase in the fluorescence intensity was observed”. The “Increase in fluorescence intensity before and after addition of hydrogen peroxide (FIG. 1(B))” value in experiment [6] (H2O2 0.1-1.0 μM, 5 minutes) is “fluorescence intensity was increased in a manner dependent on the concentration of the added hydrogen peroxide”.

Regarding `O=C(O)c1ccccc1C1c2cc(Cl)c(O)cc2Oc2cc(O)c(Cl)cc21` [DCFH, 2′,7′-dichlorodihydrofluorescein, reference compound], the “Reactivity to hypochlorite ion (fluorescence intensity before and after addition)” value in experiment [7] is recorded as 86. In addition, the “Reactivity to hydrogen peroxide (fluorescence intensity before and 30 minutes after addition)” value in experiment [1] is 190. Besides, in experiment [8], the “Reactivity to hydroxyl radical (fluorescence intensity before and after addition)” value turned out to be 7400. Further, the “Reactivity to singlet oxygen (fluorescence intensity before and 30 minutes after addition)” value in experiment [2] was 26. Further, the “Reactivity to nitric oxide (fluorescence intensity before and 30 minutes after addition)” value in experiment [4] is on record as 150. In addition, the “Reactivity to superoxide (fluorescence intensity before and 30 minutes after addition)” value in experiment [5] is given as 67.
